Test results from patent US9371320B2, “Heterocyclic compound” (TAKEDA PHARMACEUTICAL COMPANY LIMITED, priority 2012, dated 2016).
Counter-ions that a name gives are not always drawn.

Tests used:
[1] = biological target: T1, JAK1 (Homo sapiens, UniProt P23458); experiment: JAK1 enzyme inhibition test (LANCE method); format: biochemical; settings: test compound 1 μM; for inhibition at 1 µM: read-out: Inhibitory rate (%) JAK1 1 μM
T1 construct: purchased Invitrogen
Method in brief: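 Reactions ran 1 h at room temperature in HEPES pH 7.5/MgCl2 buffer, with ATP solution at 150 μM and JAK1 and ULight peptide solutions at 187.5 ng/mL and 300 nM. Reactions were stopped with EDTA, and phosphorylation was read by Eu antibody time-resolved fluorescence at 665 nm. Inhibition was scaled to a no-enzyme control as 100%.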

[2] = biological target: T2, Tyk2 (Homo sapiens, UniProt P29597); experiment: Tyk2 enzyme inhibition test (LANCE method); format: biochemical; settings: test compound 1 μM; for inhibition at 1 µM: read-out: Inhibitory rate (%) Tyk2 1 μM
T2 construct: purchased Invitrogen
Method in brief: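 LANCE TR-FRET read-out (ex 340/em 665 nm, 100 μs delay) of ULight-JAK1 phosphorylation, with no-enzyme wells as 100% inhibition. Reaction run 1 h at room temperature in pH 7.5 HEPES buffer; enzyme 375 ng/mL, substrate 300 nM and ATP 30 μM are solution concentrations before mixing.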

T1 sequence (P23458 whole entry): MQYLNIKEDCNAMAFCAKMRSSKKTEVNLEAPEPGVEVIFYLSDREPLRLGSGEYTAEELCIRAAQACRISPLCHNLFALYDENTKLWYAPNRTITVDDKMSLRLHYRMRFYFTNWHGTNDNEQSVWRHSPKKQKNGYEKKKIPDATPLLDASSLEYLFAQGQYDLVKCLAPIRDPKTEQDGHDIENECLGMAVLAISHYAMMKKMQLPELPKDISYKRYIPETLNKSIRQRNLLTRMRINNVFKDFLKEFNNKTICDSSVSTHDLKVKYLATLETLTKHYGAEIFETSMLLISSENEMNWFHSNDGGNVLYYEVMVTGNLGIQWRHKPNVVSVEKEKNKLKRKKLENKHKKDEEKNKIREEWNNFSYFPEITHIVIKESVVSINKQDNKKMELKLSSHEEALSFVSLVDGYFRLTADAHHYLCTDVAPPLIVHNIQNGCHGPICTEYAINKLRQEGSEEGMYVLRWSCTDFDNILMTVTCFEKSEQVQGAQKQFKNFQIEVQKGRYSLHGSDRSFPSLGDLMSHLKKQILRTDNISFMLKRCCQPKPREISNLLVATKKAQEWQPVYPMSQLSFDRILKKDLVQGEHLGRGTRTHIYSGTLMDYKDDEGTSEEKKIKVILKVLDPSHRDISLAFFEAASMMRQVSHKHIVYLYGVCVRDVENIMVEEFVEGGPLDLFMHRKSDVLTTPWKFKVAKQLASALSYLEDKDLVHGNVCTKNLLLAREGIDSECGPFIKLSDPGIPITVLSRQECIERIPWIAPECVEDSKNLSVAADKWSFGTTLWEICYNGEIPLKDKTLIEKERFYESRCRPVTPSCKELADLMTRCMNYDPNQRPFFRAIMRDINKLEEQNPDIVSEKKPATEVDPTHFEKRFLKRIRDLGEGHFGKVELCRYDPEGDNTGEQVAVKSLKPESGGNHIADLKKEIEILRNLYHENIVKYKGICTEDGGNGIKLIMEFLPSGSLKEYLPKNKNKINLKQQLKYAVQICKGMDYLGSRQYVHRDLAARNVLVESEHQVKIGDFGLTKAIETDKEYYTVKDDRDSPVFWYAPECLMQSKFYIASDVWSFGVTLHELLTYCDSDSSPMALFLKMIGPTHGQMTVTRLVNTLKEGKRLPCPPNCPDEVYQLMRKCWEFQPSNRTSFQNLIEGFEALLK
T2 sequence (P29597 whole entry): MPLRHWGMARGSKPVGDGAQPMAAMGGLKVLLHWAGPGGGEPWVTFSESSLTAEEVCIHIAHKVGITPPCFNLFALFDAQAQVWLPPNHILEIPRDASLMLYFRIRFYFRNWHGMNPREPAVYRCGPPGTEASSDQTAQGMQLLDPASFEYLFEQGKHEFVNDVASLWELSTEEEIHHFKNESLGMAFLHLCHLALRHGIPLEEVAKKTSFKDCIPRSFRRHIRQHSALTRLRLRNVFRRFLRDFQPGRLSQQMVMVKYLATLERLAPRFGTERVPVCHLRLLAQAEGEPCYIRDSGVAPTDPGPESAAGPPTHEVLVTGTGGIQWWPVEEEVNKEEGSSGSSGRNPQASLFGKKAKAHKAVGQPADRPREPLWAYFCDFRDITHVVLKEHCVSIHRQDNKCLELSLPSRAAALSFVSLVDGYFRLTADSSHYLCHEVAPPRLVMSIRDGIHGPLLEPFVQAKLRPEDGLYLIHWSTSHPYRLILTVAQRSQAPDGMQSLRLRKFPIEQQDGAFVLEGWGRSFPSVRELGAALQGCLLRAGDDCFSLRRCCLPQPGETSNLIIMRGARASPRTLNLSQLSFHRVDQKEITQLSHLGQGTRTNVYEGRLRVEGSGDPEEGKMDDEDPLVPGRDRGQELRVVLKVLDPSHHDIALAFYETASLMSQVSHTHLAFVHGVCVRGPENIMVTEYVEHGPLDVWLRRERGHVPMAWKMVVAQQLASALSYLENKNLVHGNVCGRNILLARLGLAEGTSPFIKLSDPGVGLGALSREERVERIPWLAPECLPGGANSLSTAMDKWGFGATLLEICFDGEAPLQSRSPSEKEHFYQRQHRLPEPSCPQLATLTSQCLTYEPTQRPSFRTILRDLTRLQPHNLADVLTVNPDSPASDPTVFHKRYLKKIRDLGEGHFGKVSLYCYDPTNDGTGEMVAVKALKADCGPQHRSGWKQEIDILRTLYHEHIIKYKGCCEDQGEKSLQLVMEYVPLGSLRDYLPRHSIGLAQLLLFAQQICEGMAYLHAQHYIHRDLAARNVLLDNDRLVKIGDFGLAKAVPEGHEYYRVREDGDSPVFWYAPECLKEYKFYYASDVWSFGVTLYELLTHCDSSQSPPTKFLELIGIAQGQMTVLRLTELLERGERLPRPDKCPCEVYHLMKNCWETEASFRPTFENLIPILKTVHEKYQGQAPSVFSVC

| Compound | inhibition at 1 µM [1] [%] | inhibition at 1 µM [2] [%] | Inhibitory rate (%) JAK1 1 μM [1] [%] | Inhibitory rate (%) Tyk2 1 μM [2] [%] |
| --- | --- | --- | --- | --- |
| N#CCc1cccc(-c2cn(C3CCCC3)c3c(C#N)c[nH]c(=O)c23)c1 [Example 109, 3-(3-(cyanomethyl)phenyl)-1-cyclopentyl-4-oxo-4,5-dihydro-1H-pyrrolo[3,2-c]pyridine-7-carbonitrile] | 61 | 94 | – | – |
| N#Cc1c[nH]c(=O)c2c(-c3cccc(CC(N)=O)c3)cn(C3CCCC3)c12 [Example 110, 2-(3-(7-cyano-1-cyclopentyl-4-oxo-4,5-dihydro-1H-pyrrolo[3,2-c]pyridin-3-yl)phenyl)acetamide] | 46 | 91 | – | – |
| N#Cc1c[nH]c(=O)c2c(-c3cn[nH]c3)cn(C3CCCC3)c12 [Example 111, 1-cyclopentyl-4-oxo-3-(1H-pyrazol-4-yl)-4,5-dihydro-1H-pyrrolo[3,2-c]pyridine-7-carbonitrile] | 96 | 99 | – | – |
| NC(=O)Cc1ccc(-c2nn(-c3c(F)cccc3F)c3c(Br)c[nH]c(=O)c23)cc1 [Example 112, 2-(4-(7-bromo-1-(2,6-difluorophenyl)-4-oxo-4,5-dihydro-1H-pyrazolo[4,3-c]pyridin-3-yl)phenyl)acetamide] | 89 | 98 | – | – |
| NS(=O)(=O)c1ccc(-c2nn(CC3CCOC3)c3cc[nH]c(=O)c23)cc1 (centres unmarked) [Example 115, 4-(4-oxo-1-(tetrahydrofuran-3-ylmethyl)-4,5-dihydro-1H-pyrazolo[4,3-c]pyridin-3-yl)benzenesulfonamide] | 87 | 66 | – | – |
| N#CCc1ccc(-c2nn(-c3c(F)cccc3F)c3c(Cl)c[nH]c(=O)c23)cc1 [Example 116, (4-(7-chloro-1-(2,6-difluorophenyl)-4-oxo-4,5-dihydro-1H-pyrazolo[4,3-c]pyridin-3-yl)phenyl)acetonitrile] | 89 | 99 | – | – |
| NC(=O)c1cc(-n2nc(C3CCCC3)c3cc[nH]c(=O)c32)cs1 [Example 117, 4-(3-cyclopentyl-7-oxo-6,7-dihydro-1H-pyrazolo[3,4-c]pyridin-1-yl)thiophene-2-carboxamide] | 99 | 98 | – | – |
| N#Cc1c[nH]c(=O)c2c1c(C1CCCC1)cn2-c1csc(C(N)=O)c1 [Example 118, 4-(4-cyano-3-cyclopentyl-7-oxo-6,7-dihydro-1H-pyrrolo[2,3-c]pyridin-1-yl)thiophene-2-carboxamide] | 94 | 99 | – | – |
| NS(=O)(=O)c1ccc(-c2nn(C3CCC(O)CC3)c3cc[nH]c(=O)c23)cc1 (centres unmarked) [Example 119, 4-(1-(4-hydroxycyclohexyl)-4-oxo-4,5-dihydro-1H-pyrazolo[4,3-c]pyridin-3-yl)benzenesulfonamide] | 100 | 99 | – | – |
| N#Cc1c[nH]c(=O)c2c(-c3ccc(OCC(N)=O)cc3)cn(C3CCCC3)c12 [Example 120, 2-(4-(7-cyano-1-cyclopentyl-4-oxo-4,5-dihydro-1H-pyrrolo[3,2-c]pyridin-3-yl)phenoxy)acetamide] | 88 | 98 | – | – |
| N#CCOc1ccc(-c2cn(C3CCCC3)c3c(C#N)c[nH]c(=O)c23)cc1 [Example 121, 3-(4-(cyanomethoxy)phenyl)-1-cyclopentyl-4-oxo-4,5-dihydro-1H-pyrrolo[3,2-c]pyridine-7-carbonitrile] | 87 | 97 | – | – |
| CCNC(=O)c1cc(-c2cn(C3CCCC3)c3c(C#N)c[nH]c(=O)c23)cs1 [Example 122, 4-(7-cyano-1-cyclopentyl-4-oxo-4,5-dihydro-1H-pyrrolo[3,2-c]pyridin-3-yl)-N-ethylthiophene-2-carboxamide] | 99 | 100 | – | – |
| CC(C)(C)NC(=O)c1cc(-c2cn(C3CCCC3)c3c(C#N)c[nH]c(=O)c23)cs1 [Example 123, N-tert-butyl-4-(7-cyano-1-cyclopentyl-4-oxo-4,5-dihydro-1H-pyrrolo[3,2-c]pyridin-3-yl)thiophene-2-carboxamide] | 99 | 99 | – | – |
| NC(=O)Cc1ccc(-c2nn(-c3c(F)cccc3F)c3c(Cl)c[nH]c(=O)c23)cc1 [Example 124, 2-(4-(7-chloro-1-(2,6-difluorophenyl)-4-oxo-4,5-dihydro-1H-pyrazolo[4,3-c]pyridin-3-yl)phenyl)acetamide] | 89 | 98 | – | – |
| N#Cc1c[nH]c(=O)c2c(-c3ccn[nH]3)cn(C3CCCC3)c12 [Example 125, 1-cyclopentyl-4-oxo-3-(1H-pyrazol-5-yl)-4,5-dihydro-1H-pyrrolo[3,2-c]pyridine-7-carbonitrile hydrochloride] | 80 | 96 | – | – |
| NS(=O)(=O)c1ccc(-c2nn(C3CCC(O)CC3)c3cc[nH]c(=O)c23)cc1 (centres unmarked) [Example 126, 4-(1-(4-hydroxycyclohexyl)-4-oxo-4,5-dihydro-1H-pyrazolo[4,3-c]pyridin-3-yl)benzenesulfonamide] | – | – | 99 | 98 |

| Compound | inhibition at 1 µM [1] [%] | inhibition at 1 µM [2] [%] | Inhibitory rate (%) JAK1 1 μM [1] [%] | Inhibitory rate (%) Tyk2 1 μM [2] [%] |
| --- | --- | --- | --- | --- |
| N#CCc1ccc(-c2nn(C3CCCC3)c3cc[nH]c(=O)c23)cc1 [Example 127, (4-(1-cyclopentyl-4-oxo-4,5-dihydro-1H-pyrazolo[4,3-c]pyridin-3-yl)phenyl)acetonitrile] | 99 | 97 | – | – |
| N#CCc1cccc(-c2nn(C3CCCC3)c3cc[nH]c(=O)c23)c1 [Example 128, (3-(1-cyclopentyl-4-oxo-4,5-dihydro-1H-pyrazolo[4,3-c]pyridin-3-yl)phenyl)acetonitrile] | 93 | 93 | – | – |
| CC(C)(C)n1nc(-c2csc(C(N)=O)c2)c2c(=O)[nH]ccc21 [Example 129, 4-(1-tert-butyl-4-oxo-4,5-dihydro-1H-pyrazolo[4,3-c]pyridin-3-yl)thiophene-2-carboxamide] | 98 | 97 | – | – |
| CC(=O)Nc1cccc(-c2cn(C3CCCC3)c3c(C#N)c[nH]c(=O)c23)c1 [Example 130, N-(3-(7-cyano-1-cyclopentyl-4-oxo-4,5-dihydro-1H-pyrrolo[3,2-c]pyridin-3-yl)phenyl)acetamide] | 76 | 96 | – | – |
| Cn1cc(-c2cn(C3CCCC3)c3c(C#N)c[nH]c(=O)c23)cn1 [Example 131, 1-cyclopentyl-3-(1-methyl-1H-pyrazol-4-yl)-4-oxo-4,5-dihydro-1H-pyrrolo[3,2-c]pyridine-7-carbonitrile] | 97 | 99 | – | – |
| N#Cc1c[nH]c(=O)c2c(-c3ccccn3)cn(C3CCCC3)c12 [Example 132, 1-cyclopentyl-4-oxo-3-(pyridin-2-yl)-4,5-dihydro-1H-pyrrolo[3,2-c]pyridine-7-carbonitrile] | 27 | 74 | – | – |
| N#Cc1c[nH]c(=O)c2c(-c3cccnc3)cn(C3CCCC3)c12 [Example 133, 1-cyclopentyl-4-oxo-3-(pyridin-3-yl)-4,5-dihydro-1H-pyrrolo[3,2-c]pyridine-7-carbonitrile] | 47 | 90 | – | – |
| N#Cc1c[nH]c(=O)c2c(-c3cccs3)cn(C3CCCC3)c12 [Example 134, 1-cyclopentyl-4-oxo-3-(2-thienyl)-4,5-dihydro-1H-pyrrolo[3,2-c]pyridine-7-carbonitrile] | 78 | 97 | – | – |
| CC(C)Cn1cc(-c2cn(C3CCCC3)c3c(C#N)c[nH]c(=O)c23)cn1 [Example 135, 1-cyclopentyl-3-(1-isobutyl-1H-pyrazol-4-yl)-4-oxo-4,5-dihydro-1H-pyrrolo[3,2-c]pyridine-7-carbonitrile] | 56 | 97 | – | – |
| Cn1ccc(-c2cn(C3CCCC3)c3c(C#N)c[nH]c(=O)c23)n1 [Example 136, 1-cyclopentyl-3-(1-methyl-1H-pyrazol-3-yl)-4-oxo-4,5-dihydro-1H-pyrrolo[3,2-c]pyridine-7-carbonitrile] | 59 | 93 | – | – |
| N#Cc1c[nH]c(=O)c2c(-c3cnn(C4CCCC4)c3)cn(C3CCCC3)c12 [Example 137, 1-cyclopentyl-3-(1-cyclopentyl-1H-pyrazol-4-yl)-4-oxo-4,5-dihydro-1H-pyrrolo[3,2-c]pyridine-7-carbonitrile] | 77 | 98 | – | – |
| N#Cc1c[nH]c(=O)c2c(-c3cnn(C4CC4)c3)cn(C3CCCC3)c12 [Example 138, 1-cyclopentyl-3-(1-cyclopropyl-1H-pyrazol-4-yl)-4-oxo-4,5-dihydro-1H-pyrrolo[3,2-c]pyridine-7-carbonitrile] | 94 | 99 | – | – |
| CC(C)(C#N)c1ccc(-c2cn(C3CCCC3)c3c(C#N)c[nH]c(=O)c23)cc1 [Example 139, 3-(4-(2-cyanopropan-2-yl)phenyl)-1-cyclopentyl-4-oxo-4,5-dihydro-1H-pyrrolo[3,2-c]pyridine-7-carbonitrile] | 96 | 98 | – | – |
| N#Cc1c[nH]c(=O)c2c(-c3cccc(N4CCOCC4)c3)cn(C3CCCC3)c12 [Example 140, 1-cyclopentyl-3-(3-(morpholin-4-yl)phenyl)-4-oxo-4,5-dihydro-1H-pyrrolo[3,2-c]pyridine-7-carbonitrile] | 17 | 91 | – | – |
| CC1(Cn2nc(-c3csc(C(N)=O)c3)c3c(=O)[nH]ccc32)COC1 [Example 141, 4-(1-((3-methyloxetan-3-yl)methyl)-4-oxo-4,5-dihydro-1H-pyrazolo[4,3-c]pyridin-3-yl)thiophene-2-carboxamide] | 99 | 92 | – | – |
